Test [1] has as its system fresh human peripheral blood neutrophils. Briefly: NETosis on Cl-amidine eluting templates in vitro (DAPI/SYTOX Green BG ratio). It counts as cell-based. How it is done: 10 mm diameter punches of the templates (n=4) were placed in a 48-well culture plate and disinfected by UV irradiation. Isolated peripheral neutrophils from whole blood were suspended in sterile HBSS and used to seed templates with 600,000 cells in 250 μL of HBSS and cultured for 3 and 6 hours under standard conditions. Cellularized templates were then fixed in 10% buffered formalin and fluorescence quantification of NETs was carried out. Templates with 100 nM SYTOX Green for extracellular DNA followed by DAPI fixed cell nuclei stain at stock concentration (FIGS. 9A, 9B, 10A, 10B, and 11A). The ratio of DAPI (blue) to SYTOX green (BG ratio) pixels per image using MATLAB 2012a was quantified to determine degree of NETosis (FIGS. 12A and 12B).
Infrared scanning and quantification of citrullinated histone H3 (CitH3) was carried out as follows. Templates were incubated with rabbit anti-human histone H3 (citrulline R2+R8+R17) antibody (ABCAM) followed by IRDye 800CW donkey anti-rabbit secondary antibody. The templates were scanned on the 800-nm channel of the Odyssey CLx Infrared Imaging System (LICOR) to generate full-thickness template fluorescence. Template-bound CitH3 was quantified with standard curve of CitH3 vacuum blotted onto a PVDF membrane. Statistical analysis was carried out as follows. […] Then the plot of relative fluorescence against mass of CitH3 was fit with a linear regression. […]

For test [2], the target named is T1, PAD4 (Homo sapiens, UniProt Q9UM07).
T1 construct: purchased
T1 sequence (Q9UM07 whole entry, species assumed): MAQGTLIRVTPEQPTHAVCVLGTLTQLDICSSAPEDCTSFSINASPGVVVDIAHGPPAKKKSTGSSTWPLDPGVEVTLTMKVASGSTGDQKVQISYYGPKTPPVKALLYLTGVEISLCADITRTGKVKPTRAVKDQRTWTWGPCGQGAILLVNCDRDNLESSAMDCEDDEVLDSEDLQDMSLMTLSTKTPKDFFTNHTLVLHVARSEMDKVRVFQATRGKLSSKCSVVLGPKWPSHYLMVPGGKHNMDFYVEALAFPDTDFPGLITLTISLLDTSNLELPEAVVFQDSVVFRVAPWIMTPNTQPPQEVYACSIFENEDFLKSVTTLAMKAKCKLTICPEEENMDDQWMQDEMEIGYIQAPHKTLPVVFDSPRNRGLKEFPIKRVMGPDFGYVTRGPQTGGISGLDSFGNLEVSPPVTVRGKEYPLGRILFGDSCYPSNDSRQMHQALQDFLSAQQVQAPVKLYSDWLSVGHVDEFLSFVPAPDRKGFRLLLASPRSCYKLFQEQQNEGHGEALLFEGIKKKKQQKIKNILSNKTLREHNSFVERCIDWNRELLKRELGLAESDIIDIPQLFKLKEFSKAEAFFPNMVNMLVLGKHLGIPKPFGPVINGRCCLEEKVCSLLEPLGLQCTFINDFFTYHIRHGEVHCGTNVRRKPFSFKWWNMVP
Briefly: PAD4 Inhibitor Screening Assay: Cl-amidine activity after exposure to electrospinning solvent HFP. It counts as biochemical. From the text: The log transform of molarity against average fluorescent intensity was plotted for each concentration (FIG. 6).
As the concentration of drug increases, the relative fluorescence decreases, signifying an increase in the inhibition of PAD4. […] However, the drug was still active producing a sigmoidal curve similar to that of the HBSS samples.
In addition to determining the activity of Cl—Am, the samples exposed to HFP were used to create a standard curve for quantifying unknown Cl—Am concentrations. The four-parameter logistic regression of the HFP exposed samples (Equation 1, x=logarithmic transform of Cl—Am concentration and y=relative fluorescence) has an R2-value of 0.996, and there is no evidence of an inadequate model from the lack of fit test (p=0.28).
Lower fluorescence indicated greater inhibition of PAD4. No evidence of lack of fit (p=0.28) was found for the four-parameter regression of HFP exposed samples. […] This provided a standard curve for quantifying unknown Cl-amidine from elution studies.

For `N=C(CCl)NCCCC(NC(=O)c1ccccc1)C(N)=O` [Cl-amidine, N-α-benzoyl-N5-(2-chloro-1-iminoethyl)-L-ornithine amide], the “effect of eluted Cl-amidine on NETosis” value in test [1] (on large diameter templates, 3 hours) is recorded as “opposite trend”; in test [1] (on small diameter templates, 3 hours (p<0.05)) it was “significantly attenuated NETosis”. In addition, the “lowest concentration inhibiting PAD4 activity” value in test [2] (after exposure to HFP) was 1.2 µM. In addition, the “activity against PAD4 after exposure to HFP versus HBSS samples” value in test [2] (at two concentrations, 5.9 and 29.5 μM (p<0.0001)) is on record as “significantly reduced its activity against PAD4”. Moreover, in test [2] (sigmoidal curve similar to HBSS samples), the “efficacy after exposure to solvent HFP” value is “retained efficacy after exposure to HFP”.

Values taken from patent US11202850B2, “Compositions and methods for inhibiting inflammation” (THE UNIVERSITY OF MEMPHIS RESEARCH FOUNDATION, priority 2018, dated 2021).
